The results in this text go back to patent publication US20230348369A1 (Cytokinetics, Inc., priority 2020, published 2023).

Where two headings read alike, the source gives them in different places.

As usually defined, the EC50 is the concentration that produces a half-maximal response.

The test has as its target human NAMPT (Homo sapiens, UniProt P43490). Kind of test: Human recombinant enzyme assay (NMN fluorescence biochemical assay, activation of NAMPT). Here is the method: Compounds described herein were assayed for their ability to stimulate the synthesis of nicotinamide mononucleotide (NMN) by the enzyme NAMPT. The human recombinant enzyme assay measures the activation of the enzyme activity by compounds using recombinant enzyme and substrates in a buffered cell-free system. The assay conditions closely mimic cellular environments. Dose responses were measured using an assay to detect the formation of nicotinamide mono-nucleotide. All experiments were performed in the 384-well format. […] Enzyme reactions were initiated with the addition of 10 μL of a solution containing the substrates. The final assay conditions were as follows: 6 nM human NAMPT, 2.5 mM ATP, 20 μM PRPP and 150 μM nicotinamide in 50 mM HEPES, pH 7.2, 1 mM DTT, 1 mM CHAPS 50 mM NaCl, 100 mM MgCl2. Following an incubation of 60 min at ambient temperature, 10 μL of 20% acetophenone in DMSO was added, followed by 10 μL of 2 M KOH and 40 μL of formic acid. The plates were read for fluorescence (Excitation/Emission=355 nm/460 nm) using an EnVision plate reader after 40 mins of incubation at ambient temperature.

[1] abbreviates: Table A, human recombinant NAMPT, NMN formation, 60 min.
Where [2] appears, read: Table A, human recombinant NAMPT, NMN formation, 60 min, read-out: EC50 Human.

Chain of human NAMPT (P43490 whole entry): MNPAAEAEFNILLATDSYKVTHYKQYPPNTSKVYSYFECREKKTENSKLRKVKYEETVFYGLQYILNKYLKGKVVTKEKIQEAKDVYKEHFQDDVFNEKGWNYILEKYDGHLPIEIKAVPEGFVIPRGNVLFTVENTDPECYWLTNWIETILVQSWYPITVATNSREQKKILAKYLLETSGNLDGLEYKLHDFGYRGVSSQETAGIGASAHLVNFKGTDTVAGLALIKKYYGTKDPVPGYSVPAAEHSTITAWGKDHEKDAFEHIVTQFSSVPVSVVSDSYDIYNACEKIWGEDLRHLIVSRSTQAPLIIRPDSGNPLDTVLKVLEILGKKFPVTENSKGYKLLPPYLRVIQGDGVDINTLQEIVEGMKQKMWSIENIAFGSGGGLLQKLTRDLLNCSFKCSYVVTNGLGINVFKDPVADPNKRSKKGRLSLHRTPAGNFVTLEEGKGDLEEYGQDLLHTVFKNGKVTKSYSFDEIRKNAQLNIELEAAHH

Consider `O=C1CC(C(=O)N2CCC(CCCCNC(=O)NCc3ccc(Cl)cc3)CC2)CN1` (centres unmarked) [Compound 303, 1-(4-chlorobenzyl)-3-(4-(1-(5-oxopyrrolidine-3-carbonyl)piperidin-4-yl)butyl)urea], for which the “AC1.4 Human” value under setting [1] worked out at 2.6 µM. Further, the EC50 under setting [2] is 15.6 µM.
For `O=C(NCCCCC1CCN(C(=O)c2ccno2)CC1)NCc1ccc(Cl)cc1` [Compound 306, 1-(4-chlorobenzyl)-3-(4-(1-(isoxazole-5-carbonyl)piperidin-4-yl)butyl)urea] the same measures were 0.4 µM and 1.2 µM.
`COc1ccc(CNC(=O)NC2CC3(C2)CC(C(=O)N[C@@H](C)c2ccccc2)C3)cc1` (stereo partly drawn) [Compound 47, (S)-6-(3-(4-methoxybenzyl)ureido)-N-(1-phenylethyl)spiro[3.3]heptane-2-carboxamide]: the EC50 turned out to be 40.6 µM. Also, under setting [1], the “AC1.4 Human” value stood at 6.5 µM.
For `COc1ccc(CNC(=O)NC2CC3(C2)CN(C(=O)c2ccc(C#N)cc2)C3)cc1` [Compound 156, 1-(2-(4-cyanobenzoyl)-2-azaspiro[3.3]heptan-6-yl)-3-(4-methoxybenzyl)urea], the “AC1.4 Human” value under setting [1] amounted to 11.0 µM. Besides, the EC50 under setting [2] turned out to be 45.8 µM.
On to `COc1ccc(CNC(=O)NC2CC3(C2)CC(C(=O)N(C)[C@@H](C)c2ccccc2F)C3)cc1` (stereo partly drawn) [Compound 60, (S)-N-(1-(2-fluorophenyl)ethyl)-6-(3-(4-methoxybenzyl)ureido)-N-methylspiro[3.3]heptane-2-carboxamide], for which the “AC1.4 Human” value under setting [1] was found to be 0.3 µM. Moreover, the half-maximal effective concentration (EC50) under setting [2] was determined as 6.1 µM.
Regarding `O=C(NCc1ccc(Cl)cc1)NC1CC2(C1)CC(NC(=O)c1cccc(O)c1)C2` (centres unmarked) [Compound 200, N-(6-(3-(4-chlorobenzyl)ureido)spiro[3.3]heptan-2-yl)-3-hydroxybenzamide], under setting [1], the “AC1.4 Human” value came out at 17.1 µM. The EC50 under setting [2] is 18.2 µM.
For `O=C(NCc1ccc(Cl)cc1)NC1CC2(C1)CC(OCc1cccnc1)C2` (centres unmarked) [Compound 350, 1-(4-chlorobenzyl)-3-(6-(pyridin-3-ylmethoxy)spiro[3.3]heptan-2-yl)urea] the same measures were 1.7 µM and 6.1 µM.
As for `Cc1cccc(N(C)C(=O)CCCCCNC(=O)NCc2ccc(Cl)cc2)c1` [Compound 264, 6-(3-(4-chlorobenzyl)ureido)-N-methyl-N-(m-tolyl)hexanamide], the “AC1.4 Human” value under setting [1] came to 1.0 µM. Further, the EC50 under setting [2] was 6.7 µM.
For `O=C(CCCCCNC(=O)NCc1ccc(Cl)cc1)Nc1ccncc1` [Compound 263, 6-(3-(4-chlorobenzyl)ureido)-N-(pyridin-4-yl)hexanamide] the same measures were 1.4 µM and 10.2 µM.
Take `COc1ccc(C(=O)N2CC[C@]3(C2)C[C@@H](NC(=O)NCc2ccc(Cl)cc2)C3)cc1` [Compound 163, 1-(4-chlorobenzyl)-3-((2r,4s)-6-(4-methoxybenzoyl)-6-azaspiro[3.4]octan-2-yl)urea]: the “AC1.4 Human” value under setting [1] was 12.4 µM. For the same compound, the 50% effective concentration (EC50) under setting [2] was found to be 27.9 µM.
As for `COc1ccc(CNC(=O)NC2CC3(C2)CN(C(=O)c2cccc(O)c2)C3)cc1` [Compound 177, 1-(2-(3-hydroxybenzoyl)-2-azaspiro[3.3]heptan-6-yl)-3-(4-methoxybenzyl)urea], the EC50 is 11.2 µM. Further, the “AC1.4 Human” value under setting [1] was determined as 2.8 µM.
`CC(C)(O)CN1CCN(C(=O)CCCCCNC(=O)NCc2ccc(Cl)cc2)CC1` [Compound 261, 1-(4-chlorobenzyl)-3-(6-(4-(2-hydroxy-2-methylpropyl)piperazin-1-yl)-6-oxohexyl)urea]: the “AC1.4 Human” value under setting [1] turned out to be 2.8 µM. Moreover, under setting [2], the EC50 was 42.9 µM.
In the same order, the values of `O=C(CCCCCNC(=O)NCc1ccc(Cl)cc1)Nc1ccc(F)cc1` [Compound 284, 6-(3-(4-chlorobenzyl)ureido)-N-(4-fluorophenyl)hexanamide] are 2.8 µM and 4.2 µM.
In the case of `CC(C)(C)OC(=O)NC1CC2(CC(NC(=O)NCc3ccc(CO)cc3)C2)C1` (centres unmarked) [Compound 9, tert-butyl (6-(3-(4-(hydroxymethyl)benzyl)ureido)spiro[3.3]heptan-2-yl)carbamate], the “AC1.4 Human” value under setting [1] came out at 3.4 µM. For the same compound, under setting [2], the EC50 was determined as 47 µM.
Turning to `COc1ccc(CNC(=O)NC2CC3(CC(CN4CCCc5c(F)cc(F)cc54)C3)C2)cc1` (centres unmarked) [Compound 127, 1-(6-((5,7-difluoro-3,4-dihydroquinolin-1(2H)-yl)methyl)spiro[3.3]heptan-2-yl)-3-(4-methoxybenzyl)urea], the “AC1.4 Human” value under setting [1] amounted to 1.4 µM. Further, under setting [2], the EC50 was determined as 33.1 µM.
Consider `COc1ccc(CNC(=O)NC2CC3(C2)CN(C(=O)c2ccncc2)C3)cc1` [Compound 139, 1-(2-isonicotinoyl-2-azaspiro[3.3]heptan-6-yl)-3-(4-methoxybenzyl)urea], for which the “AC1.4 Human” value under setting [1] worked out at 16.4 µM. In addition, under setting [2], the EC50 was 44.9 µM.
For `O=C(CCCCCNC(=O)NCc1ccc(Cl)cc1)NC1CCCC1` [Compound 258, 6-(3-(4-chlorobenzyl)ureido)-N-cyclopentylhexanamide], under setting [1], the “AC1.4 Human” value stood at 3.8 µM. The concentration for a half-maximal effect (EC50) under setting [2] was 23.1 µM.
As for `CC(C)(C)OC(=O)N1CCC2(CC1)CC2CNC(=O)NCc1cnco1` (centres unmarked) [Compound 30, tert-butyl 1-((3-(oxazol-5-ylmethyl)ureido)methyl)-6-azaspiro[2.5]octane-6-carboxylate], the EC50 under setting [2] was found to be 37.9 µM.
`COc1ccc(CNC(=O)NC2CC3(C2)CN(C(=O)C2CCCc4ccccc42)C3)cc1` (centres unmarked) [Compound 137, 1-(4-methoxybenzyl)-3-(2-(1,2,3,4-tetrahydronaphthalene-1-carbonyl)-2-azaspiro[3.3]heptan-6-yl)urea]: the “AC1.4 Human” value under setting [1] amounted to 13.8 µM. Besides, the concentration giving a half-maximal response (EC50) under setting [2] came to 53.3 µM.
Regarding `O=C(NCc1ccc(Cl)cc1)NC1CC2(C1)CN(C(=O)c1cccc(-n3cccc3)c1)C2` [Compound 219, 1-(2-(3-(1H-pyrrol-1-yl)benzoyl)-2-azaspiro[3.3]heptan-6-yl)-3-(4-chlorobenzyl)urea], under setting [1], the “AC1.4 Human” value worked out at 2.9 µM. In addition, the EC50 under setting [2] stood at 5.2 µM.
With `CC(C)(C)OC(=O)N1CC[C@]2(C1)C[C@@H](NC(=O)NCc1ccc(Cl)cc1)C2` [Compound 151, tert-butyl (2r,4s)-2-(3-(4-chlorobenzyl)ureido)-6-azaspiro[3.4]octane-6-carboxylate], the “AC1.4 Human” value under setting [1] turned out to be 6.8 µM. In addition, the EC50 under setting [2] worked out at 41.2 µM.
With `O=C(NCc1ccc(Cl)cc1)NC1CC2(CC(CS(=O)(=O)c3ccccc3)C2)C1` (centres unmarked) [Compound 352, 1-(4-chlorobenzyl)-3-(6-((phenylsulfonyl)methyl)spiro[3.3]heptan-2-yl)urea], the “AC1.4 Human” value under setting [1] was determined as 6.0 µM. The concentration for a half-maximal effect (EC50) under setting [2] was 8 µM.
`COc1ccc(CNC(=O)NC2CC3(C2)CN(C(=O)C(C)(C)c2ccc(C)cc2)C3)cc1` [Compound 153, 1-(4-methoxybenzyl)-3-(2-(2-methyl-2-(p-tolyl)propanoyl)-2-azaspiro[3.3]heptan-6-yl)urea]: under setting [1], the “AC1.4 Human” value is 2.3 µM. In addition, the EC50 under setting [2] was 26.3 µM.
For the compound `O=C(NCCCCC1CCN(C(=O)Cc2cn[nH]c2)CC1)NCc1ccc(Cl)cc1` [Compound 316, 1-(4-(1-(2-(1H-pyrazol-4-yl)acetyl)piperidin-4-yl)butyl)-3-(4-chlorobenzyl)urea], the “AC1.4 Human” value under setting [1] was found to be 1.4 µM. The half-maximal effective concentration (EC50) under setting [2] is 6.4 µM.
